Data from patent publication US6376710B2, “Amidine compounds and their use as pesticides” (Sumitomo Chemical Co., Ltd., priority 2000, dated 2002).
Read-outs that look alike come from different tables or passages of the source.

Legend:
Format in all cases: in vivo
[1] = system: common mosquito (Culex pipiens pallens); experiment: Test Example 4: treated water, common mosquito final-instar larvae, mortality; details: 192 h
[2] = system: German cockroach (Blattella germanica); experiment: Test Example 2: treated filter paper with sucrose bait, German cockroach male adults, mortality; details: 144 h
[3] = system: house fly (Musca domeestica); experiment: Test Example 3: treated filter paper with sucrose bait, house fly female adults, mortality; details: 24 h
Method: On the bottom of a polyethylene cup of 5.5 cm in diameter was placed a filter paper of the same size, to which a water dilution (500 ppm) of each of the formulations obtained from present compounds 1, 2, 3, 4, 5, 6, 7, 8, 9, 10, 11, 12, 13, 14, 15, 16, 17, 18, 19, 20, 21, 25, 26, 27, 28, 29, 32, 33, 34, 35, 36, 37, 38, 39, 40, 41, 42, 43, 44, 45, 47, 51, 52, 53, 54, 55, 60, and 61 according to Formulation Example 1 was added dropwise in an amount of 0.7 ml, and the cup was uniformly charged with about 30 mg of sucrose as a bait. Ten female adults of house fly (Musca domeestica) were set free in each cup, which was then kept covered. After 1 day, their survival was examined to determine the mortality.

NC(=Nc1c(Br)cc(C(F)(F)F)cc1Br)C(F)(F)C(F)(F)F [present compound 17, N-(2,6-Dibromo-4-trifluoromethylphenyl)-2,2,3,3,3-pentafluoropropionamidine]
100%: mortality at 3.5 ppm [1] | mortality at 500 µg/mL [2] | mortality at 500 µg/mL [3]

NC(=Nc1c(Cl)cc(OC(F)(F)F)cc1Cl)C(F)(F)C(F)(F)F [present compound 18, N-(2,6-Dichloro-4-trifluoromethoxyphenyl)-2,2,3,3,3-pentafluoropropionamidine]
100%: mortality at 3.5 ppm [1] | mortality at 500 µg/mL [2] | mortality at 500 µg/mL [3]

NC(=Nc1c(F)cc(C(F)(F)F)cc1Cl)C(F)(F)C(F)(F)F [present compound 19, N-(2-Chloro-6-fluoro-4-trifluoromethylphenyl)-2,2,3,3,3-pentafluoropropionamidine]
100%: mortality at 3.5 ppm [1] | mortality at 500 µg/mL [2] | mortality at 500 µg/mL [3]

NC(=Nc1c(Cl)cc(C(F)(F)F)cc1Cl)C(F)(F)C(F)F [present compound 20, N-(2,6-Dichloro-4-trifluoromethylphenyl)-2,2,3,3-tetrafluoropropionamidine]
100%: mortality at 3.5 ppm [1] | mortality at 500 µg/mL [2] | mortality at 500 µg/mL [3]

NC(=Nc1c([N+](=O)[O-])cc(C(F)(F)F)cc1[N+](=O)[O-])C(F)(F)C(F)(F)C(F)(F)F [present compound 21, N-(2,6-Dinitro-4-trifluoromethylphenyl)-2,2,3,3,4,4,4-heptafluorobutyramidine]
100%: mortality at 3.5 ppm [1] | mortality at 500 µg/mL [2] | mortality at 500 µg/mL [3]

NC(=Nc1c([N+](=O)[O-])cc(C(F)(F)F)cc1[N+](=O)[O-])C(F)(F)Br [present compound 25, 2-Bromo-2,2-difluoro-N-(2,6-dinitro-4-trifluoromethylphenyl) acetamidine]
100%: mortality at 3.5 ppm [1] | mortality at 500 µg/mL [2] | mortality at 500 µg/mL [3]

NC(=Nc1c([N+](=O)[O-])cc(C(F)(F)F)cc1[N+](=O)[O-])C(F)(F)C(F)F [present compound 26, N-(2,6-Dinitro-4-trifluoromethylphenyl)-2,2,3,3-tetrafluoropropionamidine]
100%: mortality at 3.5 ppm [1] | mortality at 500 µg/mL [2] | mortality at 500 µg/mL [3]

NC(=Nc1c(Br)cc(C(F)(F)F)cc1[N+](=O)[O-])C(F)(F)C(F)(F)F [present compound 27, N-(2-Bromo-6-nitro-4-trifluoromethylphenyl)-2,2,3,3,3-pentafluoropropionamidine]
100%: mortality at 3.5 ppm [1] | mortality at 500 µg/mL [2] | mortality at 500 µg/mL [3]

NC(=Nc1c([N+](=O)[O-])cc(C(F)(F)F)cc1[N+](=O)[O-])C(F)(F)Cl [present compound 28, 2-Chloro-2,2-difluoro-N-(2,6-dinitro-4-trifluoromethylphenyl)acetamidine]
100%: mortality at 3.5 ppm [1] | mortality at 500 µg/mL [2] | mortality at 500 µg/mL [3]

NC(=Nc1c([N+](=O)[O-])cc(C(F)(F)F)cc1[N+](=O)[O-])C(F)(Br)C(F)(F)F (stereo not drawn) [present compound 29, 2-Bromo-N-(2,6-dinitro-4-trifluoromethylphenyl)-2,3,3,3-tetrafluoropropionamidine]
100%: mortality at 3.5 ppm [1] | mortality at 500 µg/mL [2] | mortality at 500 µg/mL [3]

NC(=Nc1c(Cl)cc(C(F)(F)F)cc1[N+](=O)[O-])C(F)(F)C(F)(F)C(F)(F)F [present compound 32, N-(2-Chloro-6-nitro-4-trifluoromethylphenyl)-2,2,3,3,4,4,4-heptafluorobutyramidine]
100%: mortality at 3.5 ppm ([1]; active ingredient 3.5 ppm in ion-exchanged water (0.7 ml of 500 ppm dilution), final-instar larvae, after 8 days, read-out: mortality) | mortality at 500 µg/mL ([2]; water dilution (500 ppm) of flowable (Formulation Example 1), 0.7 ml on filter paper, male adults, after 6 days, read-out: mortality) | mortality at 500 µg/mL ([3]; water dilution (500 ppm) of flowable (Formulation Example 1), 0.7 ml on filter paper, female adults, after 1 day, read-out: mortality)

NC(=Nc1c([N+](=O)[O-])cc(C(F)(F)F)cc1[N+](=O)[O-])C(F)(Cl)Cl [present compound 34, 2,2-Dichloro-N-(2,6-dinitro-4-trifluoromethylphenyl)-2-fluoroacetamidine]
100%: mortality at 3.5 ppm [1] | mortality at 500 µg/mL [2] | mortality at 500 µg/mL [3]

NC(=Nc1c([N+](=O)[O-])cc(C(F)(F)F)cc1[N+](=O)[O-])C(F)(F)C(F)(F)Cl [present compound 35, 3-Chloro-N-(2,6-dinitro-4-trifluoromethylphenyl)-2,2,3,3-tetrafluoropropionamidine]
100%: mortality at 3.5 ppm [1] | mortality at 500 µg/mL [2] | mortality at 500 µg/mL [3]

CC(F)(F)C(N)=Nc1c([N+](=O)[O-])cc(C(F)(F)F)cc1[N+](=O)[O-] [present compound 36, 2,2-Difluoro-N-(2,6-dinitro-4-trifluoromethylphenyl)propionamidine]
100%: mortality at 3.5 ppm [1] | mortality at 500 µg/mL [2] | mortality at 500 µg/mL [3]

NC(=Nc1c([N+](=O)[O-])cc(C(F)(F)F)cc1[N+](=O)[O-])C(F)(F)C(F)(Cl)C(F)(F)Cl (stereo not drawn) [present compound 37, 3,4-Dichloro-N-(2,6-dinitro-4-trifluoromethylphenyl)-2,2,3,4,4-pentafluorobutyramidine]
100%: mortality at 3.5 ppm [1] | mortality at 500 µg/mL [2] | mortality at 500 µg/mL [3]

NC(=Nc1c([N+](=O)[O-])cc(C(F)(F)F)cc1[N+](=O)[O-])C(F)(F)C(F)(F)C(F)(F)C(F)F [present compound 38, N-(2,6-Dinitro-4-trifluoromethylphenyl)-2,2,3,3,4,4,5,5-octafluoropentanamidine]
100%: mortality at 3.5 ppm [1] | mortality at 500 µg/mL [2] | mortality at 500 µg/mL [3]

NC(=Nc1c([N+](=O)[O-])cc(C(F)(F)F)cc1[N+](=O)[O-])C(F)(F)C(F)(F)Br [present compound 39, 3-Bromo-N-(2,6-dinitro-4-trifluoromethylphenyl)-2,2,3,3-tetrafluoropropionamidine]
100%: mortality at 3.5 ppm [1] | mortality at 500 µg/mL [2] | mortality at 500 µg/mL [3]

NC(=Nc1c([N+](=O)[O-])cc(C(F)(F)F)cc1[N+](=O)[O-])C(F)(Cl)C(F)(F)Br (stereo not drawn) [present compound 40, 3-Bromo-2-chloro-N-(2,6-dinitro-4-trifluoromethylphenyl)-2,3,3-trifluoropropionamidine]
100%: mortality at 3.5 ppm [1] | mortality at 500 µg/mL [2] | mortality at 500 µg/mL [3]

COC(F)(C(N)=Nc1c([N+](=O)[O-])cc(C(F)(F)F)cc1[N+](=O)[O-])C(F)(F)F (stereo not drawn) [present compound 41, N-(2,6-Dinitro-4-trifluoromethylphenyl)-2-methoxy-2,3,3,3-tetrafluoropropionamidine]
100%: mortality at 3.5 ppm [1] | mortality at 500 µg/mL [2] | mortality at 500 µg/mL [3]

NC(=Nc1c([N+](=O)[O-])cc(C(F)(F)C(F)(F)F)cc1[N+](=O)[O-])C(F)(F)C(F)(F)C(F)(F)F [present compound 42, N-(2,6-Dinitro-4-pentafluoroethylphenyl)-2,2,3,3,4,4,4-heptafluorobutyramidine]
100%: mortality at 3.5 ppm [1] | mortality at 500 µg/mL [2] | mortality at 500 µg/mL [3]

NC(=Nc1c([N+](=O)[O-])cc(C(F)(F)C(F)(F)F)cc1[N+](=O)[O-])C(F)(F)C(F)(F)F [present compound 43, N-(2,6-Dinitro-4-pentafluoroethylphenyl)-2,2,3,3,3-pentafluoropropionamidine]
100%: mortality at 3.5 ppm [1] | mortality at 500 µg/mL [2] | mortality at 500 µg/mL [3]

NC(=Nc1c([N+](=O)[O-])cc(C(F)(F)F)cc1[N+](=O)[O-])C(F)(F)C(F)C(F)(F)F (stereo not drawn) [present compound 44, N-(2,6-Dinitro-4-trifluoromethylphenyl)-2,2,3,4,4,4-hexafluorobutyramidine]
100%: mortality at 3.5 ppm [1] | mortality at 500 µg/mL [2] | mortality at 500 µg/mL [3]

NC(=Nc1c([N+](=O)[O-])cc(OC(F)(F)F)cc1[N+](=O)[O-])C(F)(F)C(F)(F)C(F)(F)F [present compound 45, N-(2,6-Dinitro-4-trifluoromethoxyphenyl)-2,2,3,3,4,4,4-heptafluorobutyramidine]
100%: mortality at 3.5 ppm [1] | mortality at 500 µg/mL [2] | mortality at 500 µg/mL [3]

NC(=Nc1c([N+](=O)[O-])cc(C(F)(F)C(F)(F)C(F)(F)F)cc1[N+](=O)[O-])C(F)(F)C(F)(F)F [present compound 47, N-(2,6-Dinitro-4-heptafluoropropylphenyl)-2,2,3,3,3-pentafluoropropionamidine]
100%: mortality at 3.5 ppm [1] | mortality at 500 µg/mL [2] | mortality at 500 µg/mL [3]
